The results in this text go back to patent US10479780B2, “Aminopyrazole derivatives” (Chugai Seiyaku Kabushiki Kaisha, priority 2015, dated 2019).

What all share (assay type): biochemical
One assay addresses T1, human Yes1 enzyme (Homo sapiens, UniProt P07947).
T1 construct: made in house
Briefly: Yes1 enzyme inhibitory activity (time-resolved fluorometry, biotinylated peptide phosphorylation). The following applies: read-out: YES_IC50. Put shortly:
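Inhibition was expressed against a compound-free control to give IC50, using TR-FRET read-out (Eu-cryptate anti-pTyr antibody, streptavidin-XL665).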

The target of the next assay is T2, human Src enzyme (Homo sapiens, UniProt P12931).
T2 construct: purchased Carna Biosciences, Inc. 08-173
Briefly: Src enzyme inhibitory activity (time-resolved fluorometry, biotinylated peptide phosphorylation). The following applies: read-out: SRC_IC50. Put shortly:
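Compounds were tested for blocking tyrosine phosphorylation of a biotinylated peptide substrate by recombinant human Src. Phosphorylated product was quantified by time-resolved fluorometry using europium cryptate and XL665 conjugates, and IC50 was calculated against the compound-free control.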

A further assay deals with T3, human Lck enzyme (Homo sapiens, UniProt P06239).
T3 construct: purchased Carna Biosciences, Inc. 08-170
Briefly: Lck enzyme inhibitory activity (time-resolved fluorometry, biotinylated peptide phosphorylation). The following applies: read-out: LCK_IC50. The procedure, abridged:
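Readout pairs a europium cryptate-labelled anti-phosphotyrosine antibody with XL665-streptavidin, measured by time-resolved fluorescence. IC50 derived from percent inhibition against untreated controls.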

T2 sequence (P12931 whole entry): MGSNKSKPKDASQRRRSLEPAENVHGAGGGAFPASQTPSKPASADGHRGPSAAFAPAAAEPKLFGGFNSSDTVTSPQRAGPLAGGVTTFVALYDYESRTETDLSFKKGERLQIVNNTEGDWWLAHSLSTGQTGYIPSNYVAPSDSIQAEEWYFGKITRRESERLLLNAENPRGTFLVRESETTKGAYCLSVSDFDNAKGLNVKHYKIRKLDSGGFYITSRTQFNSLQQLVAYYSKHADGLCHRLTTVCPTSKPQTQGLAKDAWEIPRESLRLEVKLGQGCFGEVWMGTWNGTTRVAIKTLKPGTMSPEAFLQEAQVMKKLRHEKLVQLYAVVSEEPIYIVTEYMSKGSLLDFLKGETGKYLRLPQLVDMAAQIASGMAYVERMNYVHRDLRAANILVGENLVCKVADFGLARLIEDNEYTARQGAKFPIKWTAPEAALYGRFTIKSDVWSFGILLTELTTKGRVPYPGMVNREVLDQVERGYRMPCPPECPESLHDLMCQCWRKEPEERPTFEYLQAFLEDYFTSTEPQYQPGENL
T1 sequence (P07947 whole entry): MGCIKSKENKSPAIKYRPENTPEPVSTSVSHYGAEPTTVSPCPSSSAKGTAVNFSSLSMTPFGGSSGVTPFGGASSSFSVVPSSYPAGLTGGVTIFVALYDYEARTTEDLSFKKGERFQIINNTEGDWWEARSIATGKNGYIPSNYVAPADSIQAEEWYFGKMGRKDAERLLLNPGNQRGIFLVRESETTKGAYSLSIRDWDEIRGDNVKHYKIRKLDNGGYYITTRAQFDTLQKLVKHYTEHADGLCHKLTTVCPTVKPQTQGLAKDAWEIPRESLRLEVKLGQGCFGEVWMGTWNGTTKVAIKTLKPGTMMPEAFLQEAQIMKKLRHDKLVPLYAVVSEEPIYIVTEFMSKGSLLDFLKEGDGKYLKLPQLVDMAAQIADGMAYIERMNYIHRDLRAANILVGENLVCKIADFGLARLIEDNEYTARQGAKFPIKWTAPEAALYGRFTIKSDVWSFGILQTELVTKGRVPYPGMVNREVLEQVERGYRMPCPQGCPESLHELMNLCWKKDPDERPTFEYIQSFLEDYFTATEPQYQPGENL
T3 sequence (P06239 whole entry): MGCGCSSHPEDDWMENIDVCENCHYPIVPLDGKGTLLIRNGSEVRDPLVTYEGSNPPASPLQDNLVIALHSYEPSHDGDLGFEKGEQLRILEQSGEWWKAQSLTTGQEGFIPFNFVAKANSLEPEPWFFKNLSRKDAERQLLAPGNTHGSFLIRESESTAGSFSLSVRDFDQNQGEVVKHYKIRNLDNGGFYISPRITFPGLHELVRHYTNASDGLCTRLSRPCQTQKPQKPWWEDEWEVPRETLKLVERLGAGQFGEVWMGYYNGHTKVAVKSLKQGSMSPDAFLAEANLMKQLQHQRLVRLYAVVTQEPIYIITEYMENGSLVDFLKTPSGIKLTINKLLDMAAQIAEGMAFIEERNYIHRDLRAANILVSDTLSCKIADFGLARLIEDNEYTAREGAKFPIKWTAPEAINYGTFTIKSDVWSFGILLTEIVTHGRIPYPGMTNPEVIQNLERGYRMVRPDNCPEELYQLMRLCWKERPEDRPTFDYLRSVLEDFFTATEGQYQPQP

Regarding `Cc1cc(Oc2ccccc2F)ncc1-n1ncc(C(=O)c2cc3cc(SC(F)F)c(NS(=O)(=O)CCCF)cc3[nH]2)c1N` [Example 5-1-339, N-[2-[5-amino-1-[6-(2-fluorophenoxy)-4-methylpyridin-3-yl]pyrazole-4-carbonyl]-5-(difluoromethylsulfanyl)-1H-indol-6-yl]-3-fluoropropane-1-sulfonamide], the IC50 at human Yes1 enzyme is 5.7 nM; on human Src enzyme, 540 nM; at human Lck enzyme it was 74 nM.
Consider `Cc1cc(Oc2ccccc2F)ccc1-n1ncc(C(=O)c2cc3cc(OC(F)F)c(N4CC(C)(C)NS4(=O)=O)cc3[nH]2)c1N` [Example 5-1-340, [5-amino-1-[4-(2-fluorophenoxy)-2-methylphenyl]pyrazol-4-yl]-[5-(difluoromethoxy)-6-(4,4-dimethyl-1,1-dioxo-1,2,5-thiadiazolidin-2-yl)-1H-indol-2-yl]methanone], for which the results for the IC50 on human Yes1 enzyme, at human Src enzyme and on human Lck enzyme were 2.1 nM, 130 nM and 20 nM, respectively.
Taken in the same sequence, the figures for `Cc1cc2cc(C(=O)c3cnn(-c4cnc(Oc5c(F)cccc5F)cc4C)c3N)[nH]c2cc1N1C(=O)NC2(CCC2)C1=O` [Example 5-1-341, 7-[2-[5-amino-1-[6-(2,6-difluorophenoxy)-4-methylpyridin-3-yl]pyrazole-4-carbonyl]-5-methyl-1H-indol-6-yl]-5,7-diazaspiro[3.4]octane-6,8-dione] were 2.7 nM, 53 nM and 7.4 nM.
`Cc1cc2cc(C(=O)c3cnn(-c4cnc(Oc5c(F)cccc5F)cc4C)c3N)[nH]c2cc1N1C(=O)NC2(CCOCC2)C1=O` [Example 5-1-342, 3-[2-[5-amino-1-[6-(2,6-difluorophenoxy)-4-methylpyridin-3-yl]pyrazole-4-carbonyl]-5-methyl-1H-indol-6-yl]-8-oxa-1,3-diazaspiro[4.5] decane-2,4-dione]: the results for the IC50 at human Yes1 enzyme, on human Src enzyme and on human Lck enzyme were 1.7 nM, 48 nM and 5.3 nM, respectively.
For `Cc1cc(Oc2c(F)cccc2F)ncc1-n1ncc(C(=O)c2cc3cc(F)c(N4C(=O)NC5(CC5)C4=O)cc3[nH]2)c1N` [Example 5-1-343, 6-[2-[5-amino-1-[6-(2,6-difluorophenoxy)-4-methylpyridin-3-yl]pyrazole-4-carbonyl]-5-fluoro-1H-indol-6-yl]-4,6-diazaspiro[2.4] heptane-5,7-dione] the same measures were 3 nM, 100 nM and 7.2 nM.
For `Cc1cc(Oc2c(F)cccc2F)ncc1-n1ncc(C(=O)c2cc3cc(F)c(N4C(=O)NC5(CCCC5)C4=O)cc3[nH]2)c1N` [Example 5-1-344, 3-[2-[5-amino-1-[6-(2,6-difluorophenoxy)-4-methylpyridin-3-yl]pyrazole-4-carbonyl]-5-fluoro-1H-indol-6-yl]-1,3-diazaspiro[4.4]nonane-2,4-dione] the same measures were 4.7 nM, 150 nM and 13 nM.
For `Cc1cc(Oc2c(F)cccc2F)ncc1-n1ncc(C(=O)c2cc3cc(F)c(N4C(=O)NC5(COC5)C4=O)cc3[nH]2)c1N` [Example 5-1-345, 7-[2-[5-amino-1-[6-(2,6-difluorophenoxy)-4-methylpyridin-3-yl]pyrazole-4-carbonyl]-5-fluoro-1H-indol-6-yl]-2-oxa-5,7-diazaspiro[3.4] octane-6,8-dione] the same measures were 1.6 nM, 47 nM and 3.2 nM.
For the compound `Cc1cc(Oc2c(F)cccc2F)ncc1-n1ncc(C(=O)c2cc3cc(SC(F)F)c(NS(=O)(=O)C4CCOCC4)cc3[nH]2)c1N` [Example 5-1-346, N-[2-[5-amino-1-[6-(2,6-difluorophenoxy)-4-methylpyridin-3-yl]pyrazole-4-carbonyl]-5-(difluoromethylsulfanyl)-1H-indol-6-yl]oxane-4-sulfonamide], the IC50 at human Yes1 enzyme was 8.8 nM; on human Src enzyme, 510 nM; at human Lck enzyme, 120 nM.
For `Cc1cc2cc(C(=O)c3cnn(-c4ccc(Oc5ccccc5F)cc4C)c3N)[nH]c2cc1NS(=O)(=O)C1CCOCC1` [Example 5-1-347, N-[2-[5-amino-1-[4-(2-fluorophenoxy)-2-methylphenyl]pyrazole-4-carbonyl]-5-methyl-1H-indol-6-yl]oxane-4-sulfonamide] the same measures were 0.87 nM, 46 nM and 11 nM.
For `Cc1cc(Oc2c(F)cccc2F)ncc1-n1ncc(C(=O)c2cc3cc(OCC(F)F)c(N4C(=O)N[C@]5(CCNC5)C4=O)cc3[nH]2)c1N` [Example 5-1-348, (5S)-3-[2-[5-amino-1-[6-(2,6-difluorophenoxy)-4-methylpyridin-3-yl]pyrazole-4-carbonyl]-5-(2,2-difluoroethoxy)-1H-indol-6-yl]-1,3,7-triazaspiro[4.4]nonane-2,4-dione] the same measures were 0.8 nM, 13 nM and 2 nM.
Taken in the same sequence, the figures for `Cc1cc(Oc2ccccc2F)ccc1-n1ncc(C(=O)c2cc3cc(OCC(F)F)c(N4C(=O)NC5(CCNC5)C4=O)cc3[nH]2)c1N` (stereo not drawn) [Example 5-1-349, 3-[2-[5-amino-1-[4-(2-fluorophenoxy)-2-methylphenyl]pyrazole-4-carbonyl]-5-(2,2-difluoroethoxy)-1H-indol-6-yl]-1,3,7-triazaspiro [4.4]nonane-2,4-dione] were 0.51 nM, 6.9 nM and 2.5 nM.
In the case of `Cc1cc(Oc2c(F)cccc2F)ncc1-n1ncc(C(=O)c2cc3cc(OCC(F)F)c(N4C(=O)NC5(CCN(C6COC6)CC5)C4=O)cc3[nH]2)c1N` [Example 5-1-350, 3-[2-[5-amino-1-[6-(2,6-difluorophenoxy)-4-methylpyridin-3-yl]pyrazole-4-carbonyl]-5-(2,2-difluoroethoxy)-1H-indol-6-yl]-8-(oxetan-3-yl)-1,3,8-triazaspiro[4.5]decane-2,4-dione], the results for the IC50 at human Yes1 enzyme, on human Src enzyme and at human Lck enzyme were 0.88 nM, 13 nM and 3.3 nM, respectively.
For `Cc1cc(Oc2c(F)cccc2F)ncc1-n1ncc(C(=O)c2cc3cc(OCC(F)F)c(N4C(=O)NC5(CCN(Cc6ccccc6)CC5)C4=O)cc3[nH]2)c1N` [Example 5-1-351, 3-[2-[5-amino-1-[6-(2,6-difluorophenoxy)-4-methylpyridin-3-yl]pyrazole-4-carbonyl]-5-(2,2-difluoroethoxy)-1H-indol-6-yl]-8-benzyl-1,3,8-triazaspiro[4.5]decane-2,4-dione] the same measures were 0.65 nM, 6 nM and 2.4 nM.
For `Cc1cc(Oc2c(F)cccc2F)ncc1-n1ncc(C(=O)c2cc3cc(OCC(F)F)c(N4C(=O)NC5(CCN(C6COC6)C5)C4=O)cc3[nH]2)c1N` (stereo not drawn) [Example 5-1-352, 3-[2-[5-amino-1-[6-(2,6-difluorophenoxy)-4-methylpyridin-3-yl]pyrazole-4-carbonyl]-5-(2,2-difluoroethoxy)-1H-indol-6-yl]-7-(oxetan-3-yl)-1,3,7-triazaspiro[4.4]nonane-2,4-dione] the same measures were 11 nM, 160 nM and 17 nM.
Taken in the same sequence, the figures for `Cc1cc(Oc2ccccc2F)ccc1-n1ncc(C(=O)c2cc3cc(OCC(F)F)c(N4C(=O)NC5(CCN(C6COC6)C5)C4=O)cc3[nH]2)c1N` (stereo not drawn) [Example 5-1-353, 3-(2-(5-amino-1-(4-(2-fluorophenoxy)-2-methylphenyl)-1H-pyrazole-4-carbonyl)-5-(2,2-difluoroethoxy)-1H-indol-6-yl)-7-(oxetan-3-yl)-1,3,7-triazaspiro[4.4]nonane-2,4-dione] were 5.5 nM, 73 nM and 14 nM.
For `Cc1cc(Oc2c(F)cccc2F)ncc1-n1ncc(C(=O)c2cc3cc(OCC(F)F)c(N4C(=O)NC5(CCN(Cc6ccccc6)C5)C4=O)cc3[nH]2)c1N` (stereo not drawn) [Example 5-1-354, 3-[2-[5-amino-1-[6-(2,6-difluorophenoxy)-4-methylpyridin-3-yl]pyrazole-4-carbonyl]-5-(2,2-difluoroethoxy)-1H-indol-6-yl]-7-benzyl-1,3,7-triazaspiro[4.4]nonane-2,4-dione], the results for the IC50 at human Yes1 enzyme, at human Src enzyme and on human Lck enzyme were 1.4 nM, 13 nM and 2.9 nM, respectively.
In the case of `Cc1cc(Oc2ccccc2F)ccc1-n1ncc(C(=O)c2cc3cc(OCC(F)F)c(N4C(=O)NC5(CCN(Cc6ccccc6)C5)C4=O)cc3[nH]2)c1N` (stereo not drawn) [Example 5-1-355, 3-[2-[5-amino-1-[4-(2-fluorophenoxy)-2-methylphenyl]pyrazole-4-carbonyl]-5-(2,2-difluoroethoxy)-1H-indol-6-yl]-7-benzyl-1,3,7-triazaspiro[4.4]nonane-2,4-dione], the IC50 came to 8 nM at human Yes1 enzyme, 97 nM at human Src enzyme and 13 nM on human Lck enzyme.
For `Cc1cc2cc(C(=O)c3cnn(-c4ccc(Oc5ccccc5F)cc4C)c3N)[nH]c2cc1N1C(=O)NC(C)(C)C1=O` [Example 5-1-356, 3-[2-[5-amino-1-[4-(2-fluorophenoxy)-2-methylphenyl]pyrazole-4-carbonyl]-5-methyl-1H-indol-6-yl]-5,5-dimethylimidazolidine-2,4-dione] the same measures were 0.87 nM, 17 nM and 4.4 nM.
For `Cc1cc2cc(C(=O)c3cnn(-c4cnc(Oc5c(F)cccc5F)cc4C)c3N)[nH]c2cc1N1C(=O)NC2(CCNCC2)C1=O` [Example 5-1-357, 3-[2-[5-amino-1-[6-(2,6-difluorophenoxy)-4-methylpyridin-3-yl]pyrazole-4-carbonyl]-5-methyl-1H-indol-6-yl]-1,3,8-triazaspiro[4.5] decane-2,4-dione] the same measures were 2.3 nM, 39 nM and 4.4 nM.
